Assay results published in patent US9997714B2, “Hole transport material” (MERCK PATENT GMBH, priority 2013, dated 2018).
Where two headings read alike, the source gives them in different places. Blank lines part the entries; values can stand above or below the compound they belong to.

Assays:
[1] = Qualitative solubility of the HTM in chlorobenzene (spin-coat solution); format: physicochemical; conditions: for solubility: organic solvent or mixture; for solubility compared with reference materials: in words
Description: A solution for a spin-coat is prepared in a N2 glove box as follows: at first, 20 mg of a hole transport material is dissolved in 95 μL of chlorobenzene. The hole transport material needs to be dissolved completely. A mother solution of lithium bis(trifluorosulfonyl)imide (LiTFSI) and tert-butylpyridine (TBP) is prepared separately at room temperature and is added to the hole transporter solution to set the molar ratio to [hole transporter]:[LiTFSI]:[TBP]=10:1:10 at room temperature. Thus the final volume of the solution is 100 μL.
The solubility of the HTMs according to examples 1, 2 and 3 are evaluated qualitatively:
1 means: 20 mg of HTM is completely dissolved without heating
2 means: HTM is dissolved after heating to 80° C.
3 means: HTM is dissolved after adding salt and base solution and heating to 80° C.
4 means: HTM is dissolved after adding another 50 μL of chlorobenzene and heat to 80° C. (final folume 150 μl).

[2] = Hole mobility by impedance spectroscopy; format: physicochemical; conditions: for Hole mobility: ITO/PEDOT-PSS/HTM(400 nm)/Au cell, dc field intensity 10^5V/cm, four cells
Description: The hole mobility of the inventive compound 2,2′,7,7′-tetrakis-(N,N′-di-4-methoxy-3-methylphenylamine)-9,9′-spirobifluorene is measured and the value is compared with those of the reference materials according to example 2 and example 3.
The structure of the measurement cell is ITO(200 nm)/PEDOT-PSS(150 nm)/HTM(400 nm)/Au(60 nm).
The measurement is carried out using four cells for each HTM by means of impedance spectroscopy. (Ref. 1. H. Martens et al., Phys. Rev. B, 60, R8489 (1999), Ref. 2. S. Ishihara, et al., Proc. of IDW'09, p 1085 (2009)). In the impedance measurement, a direct current (dc) voltage is applied to the test cell in order to inject holes from an anode. The hole mobility is determined under the dc field intensity of 10^5V/cm.

[3] = order of magnitude, background; cited from earlier work
[4] = 20 mg of HTM in 95 μL chlorobenzene completely dissolved without heating, read-out: solubility grade 1

Structure (SMILES): COc1ccc(N(c2ccc(OC)cc2)c2ccc3c(c2)C2(c4cc(N(c5ccc(OC)cc5)c5ccc(OC)cc5)ccc4-3)c3cc(N(c4ccc(OC)cc4)c4ccc(OC)cc4)ccc3-c3ccc(N(c4ccc(OC)cc4)c4ccc(OC)cc4)cc32)cc1 [Example 2, 2,2′,7,7′-tetrakis-(N,N′-di-4-methoxyphenylamine)-9,9′-spirobifluorene]
solubility grade 2 ([1]; HTM dissolved after heating to 80° C.): ✓ | solubility [1, 4]: < 210 mg/mL | Hole mobility [2]: 1.08E−04 cm^2/Vs | charge carrier mobility [3]: ~10^−4 cm^2/Vs

solubility grade 4 ([1]; HTM dissolved after adding another 50 μL of chlorobenzene and heat to 80° C., final volume 150 μl): ✓ | solubility ([1]; chlorobenzene with LiTFSI and tert-butylpyridine solution, HTM dissolved after adding salt and base solution and heating to 80° C., read-out: solubility grade 3): < 210 mg/mL | solubility ([1]; chlorobenzene, HTM dissolved after heating to 80° C., read-out: solubility grade 2): < 210 mg/mL | solubility [1, 4]: < 210 mg/mL | Hole mobility [2]: 9.34E−06 cm^2/Vs
Structure (SMILES): COc1c(C)cc(N(c2cc(C)c(OC)c(C)c2)c2ccc3c(c2)C2(c4cc(N(c5cc(C)c(OC)c(C)c5)c5cc(C)c(OC)c(C)c5)ccc4-3)c3cc(N(c4cc(C)c(OC)c(C)c4)c4cc(C)c(OC)c(C)c4)ccc3-c3ccc(N(c4cc(C)c(OC)c(C)c4)c4cc(C)c(OC)c(C)c4)cc32)cc1C [Example 3]

hole mobility compared with reference example 3 ([2]; in words): more than one order of magnitude larger
Structure (SMILES): COc1ccc(N(c2ccc(OC)c(C)c2)c2ccc3c(c2)C2(c4cc(N(c5ccc(OC)c(C)c5)c5ccc(OC)c(C)c5)ccc4-3)c3cc(N(c4ccc(OC)c(C)c4)c4ccc(OC)c(C)c4)ccc3-c3ccc(N(c4ccc(OC)c(C)c4)c4ccc(OC)c(C)c4)cc32)cc1C
hole mobility compared with spiro-OMeTAD ([2]; in words): larger than the hole mobility of spiro-OMeTAD

solubility grade 1 ([1]; 20 mg of HTM in 95 μL chlorobenzene completely dissolved without heating): ✓ | solubility compared with reference materials ([1]; listed as compound of formula (I)): better solubility than spiro-OMeTAD | Hole mobility [2]: 1.29E−04 cm^2/Vs
Structure (SMILES): COc1ccc(N(c2ccc(OC)c(C)c2)c2ccc3c(c2)C2(c4cc(N(c5ccc(OC)c(C)c5)c5ccc(OC)c(C)c5)ccc4-3)c3cc(N(c4ccc(OC)c(C)c4)c4ccc(OC)c(C)c4)ccc3-c3ccc(N(c4ccc(OC)c(C)c4)c4ccc(OC)c(C)c4)cc32)cc1C [Example 1, 2,2′,7,7′-tetrakis-(N,N′-di-4-methoxy-3-methylphenylamine)-9,9′-spirobifluorene]
solubility compared with reference materials ([1]; listed as hole transport material according to the invention): better solubility than the reference materials
